# According to patent publication US12116362B2, “Monocyclic compounds useful as GPR120 modulators” (Valo Health, Inc., priority 2016, dated 2024):
# Tests used:
# [1] = biological target: T1, human GPR120 (Homo sapiens, UniProt Q5NUL3); experiment: GPR120 β-Arrestin Recruitment Assay (PathHunter, CHO-K1 cells); assay type: cell-based; conditions: for EC50: pEC50=−log(EC50) from curve fit, CHO-K1 cells, 90 min incubation, read-out: β-Arr pEC50 (converted)
# T1 construct: host or cells: CHO-K1
# From the text: This in vitro assay tests compounds' ability to activate intracellular signaling via 3-Arrestin recruitment to heterologously expressed human GPR120. This functional cellular assay utilizes enzyme fragment complementation with β-galactosidlase (β-gal) as a functional reporter (DiscoveRx PathlHunter® β-Arrestin assay platform). The human (GPR120 receptor (GenBank accession Number NM_181745) was fused in frame with the small enzyme fragment ProLink™ and co-expressed in CHO-K1 cells with a fusion protein of β-Arrestin 2 and the larger, N-terminal deletion mutant of β-gal. Activation by a GPR120 agonist stimulates binding of β-arrestin to the ProLink-tagged GPCR and forces complementation of the two enzyme fragments, resulting in the formation of an active β-gal enzyme. This interaction leads to an increase in enzyme activity that can be measured using chemiluminescent PathHunter® Detection Reagents.
# One day prior to the assay, cells were seeded in a total volume of 20 μl of growth medium into white walled 384-well microplates and incubated at 37° C./5% CO2 overnight. On the day of the assay, growth medium was removed and 20 μl assay buffer (HBSS+10 mM HEPES+0.1% heat-inactivated BSA) were added to each well.
# Test compounds were dissolved in 100% DMSO to a concentration of 10 mM to provide stock solutions. Serial dilutions were performed from stock solutions into assay buffer to obtain intermediate concentrations of 5-fold higher than the concentrations to be tested. 5 μl of the 5× compound solutions were added to the cells and the assay plates were incubated at 37° C. for 90 minutes. The final concentration of compounds tested in the assay ranged from 1.5 nM to 100 μM. Following incubation, 12.5 μl of PathHunter® detection reagent were added to each well, and plates were incubated at room temperature for 60 minutes. Chemiluminescence was read using an EnVision plate reader (PerkinElmer), raw data were expressed as relative light units (RLU).
# (§1) To determine agonist potencies (EC50 values), non-linear least-squares curve fits of the raw data (RLU) were performed in the GraphPad Prism software package, using the 4-parameter model with variable Hill Slope:
# Reported below in Table 1 are pEC50 values (pEC50=−log(EC50) from curve fit) for compounds of Formula I in this assay, β-Arr pEC50 Alternatively, percent activation at a single concentration is reported.
# T1 sequence (Q5NUL3 1-377 isoform Q5NUL3-1): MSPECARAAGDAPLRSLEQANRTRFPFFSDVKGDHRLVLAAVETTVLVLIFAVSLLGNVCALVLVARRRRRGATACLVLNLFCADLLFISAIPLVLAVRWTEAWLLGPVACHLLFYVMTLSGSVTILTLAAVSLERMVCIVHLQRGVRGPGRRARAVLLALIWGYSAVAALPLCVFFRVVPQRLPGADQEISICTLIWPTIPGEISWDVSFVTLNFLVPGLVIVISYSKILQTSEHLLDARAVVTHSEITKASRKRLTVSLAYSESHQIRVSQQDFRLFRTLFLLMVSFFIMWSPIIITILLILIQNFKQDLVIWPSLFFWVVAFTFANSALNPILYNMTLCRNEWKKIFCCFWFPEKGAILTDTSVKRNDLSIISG
# T1 sequence (P32121 whole entry partner): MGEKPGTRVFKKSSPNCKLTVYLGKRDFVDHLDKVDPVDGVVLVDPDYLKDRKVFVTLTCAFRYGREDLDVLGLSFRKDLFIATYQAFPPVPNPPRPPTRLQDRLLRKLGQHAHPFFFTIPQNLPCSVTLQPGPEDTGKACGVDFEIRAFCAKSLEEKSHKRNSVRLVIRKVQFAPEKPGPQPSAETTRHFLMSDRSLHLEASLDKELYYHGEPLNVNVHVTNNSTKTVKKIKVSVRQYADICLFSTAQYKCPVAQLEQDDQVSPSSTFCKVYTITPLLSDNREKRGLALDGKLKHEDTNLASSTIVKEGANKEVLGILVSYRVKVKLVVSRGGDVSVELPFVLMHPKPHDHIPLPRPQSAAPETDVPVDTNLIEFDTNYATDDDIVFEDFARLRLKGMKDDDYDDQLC
# [2] = biological target: T2, human GPR120 (Homo sapiens, UniProt Q5NUL3); experiment: Human GPR120 Calcium-Release Assay (aequorin luminescence, CHO-K1 cells); assay type: cell-based; conditions: pEC50=−log(EC50) from curve fit; short variant of human GPR120 in CHO-K1 with Gα16 and apoaequorin; read-out: Ca2+ pEC50 (converted)
# T2 construct: expressed in transfected cells; host or cells: CHO-K1 coexpressing Gα16 and mitochondrial apoaequorin
# T2 sequence (Q5NUL3 1-361): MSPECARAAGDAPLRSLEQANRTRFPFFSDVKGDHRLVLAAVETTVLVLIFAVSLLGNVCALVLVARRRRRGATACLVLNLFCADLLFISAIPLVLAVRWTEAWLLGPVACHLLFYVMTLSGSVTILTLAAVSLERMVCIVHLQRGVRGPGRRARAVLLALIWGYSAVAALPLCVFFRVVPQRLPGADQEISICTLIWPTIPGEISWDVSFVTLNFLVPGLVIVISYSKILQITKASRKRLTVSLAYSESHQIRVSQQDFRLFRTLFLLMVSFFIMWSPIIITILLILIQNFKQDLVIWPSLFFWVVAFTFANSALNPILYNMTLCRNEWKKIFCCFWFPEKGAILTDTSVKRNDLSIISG
# From the text: This in vitro assay tests compounds' ability to activate heterologously expressed human GPR120 via G-protein coupling leading to generation of inositol 1,4,5-triphosphate and mobilization of intracellular calcium. This functional cellular assay is based on the luminescence of mitochondrial aequorin following intracellular Ca^2+ release. Aequorin is a photoprotein isolated from the jellyfish Aequorea victoria. The active protein is formed in the presence of molecular oxygen from apoaequorin and its cofactor coelenterazine. Binding of Ca^2+ to the active protein induces a conformational change, resulting in oxidation of coelenterazine and subsequent blue luminescence.
# The short variant of the human GPR120 receptor (GenBank accession Number AAI01176) was stably expressed in a CHO-K1 cell line coexpressing Gα16 and mitochondrial apoaequorin.
# Cells were grown to mid-log phase in culture media without antibiotics, were detached with PBS/EDTA, centrifuged and resuspended in assay buffer (DMEM-F12 medium with 15 mM HEPES pH 7.0 and 0.1% protease free BSA) at a concentration of 10^6 cells/mL. Cells were incubated at room temperature for at least 4 hours with 5 μM coelenterazine h.
# Test compounds were dissolved in 100% DMSO to a concentration of 20 mM to provide stock solutions. Serial dilutions were performed from stock solutions in 100% DMSO to obtain intermediate concentrations 200-fold higher than the concentrations to be tested. Each sample was diluted 100-fold into assay buffer. 50 μl of these compound solutions were dispensed into each well of 96-well assay plates. The final concentration of compounds tested in the assay ranged from 5 nM to 100 μM. α-Linolenic acid was used as a reference compound. Each test was performed in duplicate.
# To start the assay, 50 μl of cell suspension were added to each well of the assay plate. The resulting luminescence was recorded using a Hamamatsu Functional Drug Screening System 6000 (FDSS 6000), and raw data were expressed as relative light units (RLU).
# as §1
# Reported below in Table 1 are pEC50 values (pEC50=−log(EC50) from curve fit) for representative compounds of Formula I in this assay, Ca2+pEC50.
SMILES,EC50 [1] [nM],EC50 [2] [nM],"activation at 10 µM ([1]; CHO-K1, @ 10 uM, read-out: percent activation at a single concentration (printed in the β-Arr pEC50 column)) [%]"
COc1cc(N2Cc3ccccc3S2(=O)=O)nc(OC2CC(F)(F)C2)n1 [Compound 93],,631,
O=S1(=O)c2ccccc2CN1c1ccnc(Oc2ccc(Br)cc2)n1 [Compound 41],2510,794,
Cc1cc(OC2CCC2)nc(N2Cc3ccccc3S2(=O)=O)c1 [Compound 128],39.8,79.4,
CN1CC(Oc2nccc(N3Cc4ccccc4S3(=O)=O)n2)C1 [Compound 61],> 31600,> 100000,
O=S1(=O)c2ccccc2CN1c1ccnc(OC2CCCCC2)n1 [Compound 59],6310,12600,
Cc1cc(N2Cc3ccccc3S2(=O)=O)nc(Oc2ccc(Cl)cc2)n1 [Compound 86],251,398,
CCOc1nccc(N2Cc3ccccc3S2(=O)=O)n1 [Compound 67],> 10000,6310,
COc1ccc(Oc2nccc(N3Cc4ccccc4S3(=O)=O)n2)cc1 [Compound 44],> 10000,1580,
Cc1cc(N2Cc3ccccc3S2(=O)=O)nc(Oc2cccnc2)n1 [Compound 77],2510,1000,
O=S1(=O)c2ccccc2CN1c1ccnc(Oc2ccccc2Cl)n1 [Compound 20],6310,3980,
COc1cc(N2Cc3ccccc3S2(=O)=O)nc(Oc2cccnc2)n1 [Compound 79],1580,501,
Cc1ccc(Oc2nccc(N3Cc4ccccc4S3(=O)=O)n2)cc1Cl [Compound 34],1580,200,
COc1cc(Oc2ccc(Cl)cc2)nc(N2Cc3ccccc3S2(=O)=O)n1 [Compound 96],1000,> 10000,
O=S1(=O)c2ccccc2CN1c1ccnc(Oc2cccc(F)c2)n1 [Compound 37],1000,200,
Cc1cc(N2Cc3ccccc3S2(=O)=O)nc(Oc2ccc(F)cc2)n1 [Compound 106],1000,200,
COc1cc(N2Cc3ccccc3S2(=O)=O)nc(Oc2ccc(F)cc2)n1 [Compound 99],501,158,
O=S1(=O)c2ccccc2CN1c1ccnc(Oc2cncc(Cl)c2)n1 [Compound 51],,1000,
Cc1cccc2c1CN(c1nccc(Oc3cccnc3)n1)C2 [Compound 118],1000,,
COc1ccc2c(c1)C(=O)N(c1ccnc(Oc3cccnc3)n1)C2 [Compound 11],> 10000,,
Cc1cc(Oc2ccc(F)cc2)nc(N2Cc3ccccc3S2(=O)=O)n1 [Compound 104],3980,,
O=S1(=O)c2ccccc2CN1c1ccnc(Oc2ccc(-n3cncn3)cc2)n1 [Compound 48],> 10000,,
O=S1(=O)c2ccccc2CN1c1ccnc(Oc2ccc(Cl)c(Cl)c2)n1 [Compound 33],,> 100000,
O=S1(=O)c2ccccc2CN1c1ccnc(OC2CC(F)(F)C2)n1 [Compound 7],12600,,
O=S1(=O)c2ccccc2CN1c1ccnc(-n2ccc3ccccc32)n1 [Compound 29],15800,,
Cc1cc(Oc2cccnc2)nc(N2Cc3ccccc3S2(=O)=O)n1 [Compound 115],6310,,
NC(=O)COc1nccc(N2Cc3ccccc3S2(=O)=O)n1 [Compound 75],> 31600,,
O=S1(=O)c2ccccc2CN1c1nccc(OC2CC(F)(F)C2)n1 [Compound 94],> 10000,,
O=C1c2cccnc2CN1c1ccnc(Oc2cccnc2)n1 [Compound 9],> 31600,,
O=S1(=O)c2ccccc2CN1c1ccnc(OC2CCNCC2)n1 [Compound 62],> 10000,,

# Now from value to compound:
EC50 [1] [nM],EC50 [2] [nM],"activation at 10 µM ([1]; CHO-K1, @ 10 uM, read-out: percent activation at a single concentration (printed in the β-Arr pEC50 column)) [%]",SMILES
2510,794,,O=S1(=O)c2ccccc2CN1c1cc(C2CC2)nc(Oc2cccnc2)n1 [Compound 83]
1580,> 100000,,O=S1(=O)c2ccccc2CN1c1ccnc(Oc2ccc(OCc3ccccc3)cc2)n1 [Compound 45]
,7940,,O=S1(=O)c2ccccc2CN1c1ccnc(Oc2cccnc2)n1 [Compound 1]
39800,1260,,O=S1(=O)c2ccccc2CN1c1cncc(Oc2cccnc2)n1 [Compound 142]
1580,200,,O=S1(=O)c2ccccc2CN1c1cccc(Oc2cccnc2)n1 [Compound 121]
501,2510,,COc1cc(Oc2cccnc2)nc(N2Cc3ccccc3S2(=O)=O)n1 [Compound 80]
6310,1260,,O=S1(=O)c2ccccc2CN1c1ccnc(Oc2ccccc2)n1 [Compound 16]
> 31600,> 100000,,O=S1(=O)c2ccccc2CN1c1cccc(Oc2cccc(Cl)c2)n1 [Compound 123]
2510,631,,O=S1(=O)c2ccccc2CN1c1ccnc(OC2CCC2)n1 [Compound 58]
> 10000,> 100000,,O=S1(=O)c2ccccc2CN1c1ccnc(OCc2ccccn2)n1 [Compound 72]
631,1000,,O=S1(=O)c2ccccc2CN1c1cc(C(F)(F)F)nc(Oc2ccc(Cl)cc2)n1 [Compound 97]
501,> 100000,,CN1CCC(Oc2nccc(N3Cc4ccccc4S3(=O)=O)n2)C1 (centres unmarked) [Compound 63]
> 10000,794,,O=S1(=O)c2ccccc2CN1c1ccnc(Oc2ccccc2F)n1 [Compound 56]
794,2510,,O=S1(=O)c2ccccc2CN1c1cc(C(F)(F)F)nc(Oc2ccccc2)n1 [Compound 98]
2510,20000,,CNC(=O)c1cc(N2Cc3ccccc3S2(=O)=O)nc(Oc2ccc(Cl)cc2)n1 [Compound 89]
158,316,,Cc1cc(Oc2ccc(Cl)cc2)nc(N2Cc3ccccc3S2(=O)=O)c1 [Compound 131]
> 7940,501,,O=S1(=O)c2ccccc2CN1c1ccnc(Oc2ccc(Cl)cc2)n1 [Compound 21]
25100,,,O=S1(=O)c2ccccc2CN1c1ccnc(Oc2cncc3ccccc23)n1 [Compound 32]
,,8,c1cncc(Oc2ccnc(N3Cc4ccccc4C3)n2)c1 [Compound 14]
> 31600,,,O=C1c2ccccc2CN1c1cccc(Oc2cccc(Cl)c2)n1 [Compound 130]
> 10000,,,CC(C)c1cc(N2Cc3ccccc3S2(=O)=O)nc(Oc2cccnc2)n1 [Compound 84]
794,,,Cc1cc(N2Cc3ccccc3S2(=O)=O)nc(Oc2ccccc2)n1 [Compound 107]
39800,,,COc1ccc2c(c1)CN(c1nccc(Oc3cccnc3)n1)S2(=O)=O [Compound 116]
